The values that follow come from PubChem BioAssay (NCI).

SMILES strings stand for the structures.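 Interpolation was linear, between the two tested concentrations surrounding the appropriate level; five concentrations were tested over 48 hours in 96-well plates. GI50 = concentration required for 50% inhibition of growth. TGI: total growth inhibition.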

Among the test systems are NCI-H23 lung; SK-MEL-28 melanoma; HCT-116 colon; A549 NSCLC; NCI-H226 lung; SF-539 CNS; MDA-N; TK-10 renal; UACC-257 melanoma; DU-145 prostate; CCRF-CEM leukemia; SN12C renal; SF-295 CNS; SW-620 colon; OVCAR-5 ovarian; SR leukemia.
What all share (assay): growth of human tumour cells (NCI), 48 h

In the case of `O=C(Nc1c[nH]c(=O)[nH]c1=O)C(Cl)Cl`, the TGI in the assay on NCI-H23 lung, in the assay on SK-MEL-28 melanoma, in the assay on HCT-116 colon, in the assay with A549 NSCLC, in the assay on NCI-H226 lung and in the assay with SF-539 CNS was over 100 µM in each case. The TGI with MDA-N, in the assay with TK-10 renal, in the assay with UACC-257 melanoma, in the assay with DU-145 prostate, in the assay on CCRF-CEM leukemia and with SN12C renal was over 100 µM throughout. For the same compound, the TGI in the assay on SF-295 CNS and in the assay with SW-620 colon was over 100 µM in each case.

Turning to `CCCCc1c(C(=O)OC(C)(C)C)cc(C#Cc2cc(C(=O)OC(C)(C)C)c(CCCC)c(C(=O)OC(C)(C)C)c2)cc1C(=O)OC(C)(C)C`, the TGI in the assay on OVCAR-5 ovarian, in the assay with NCI-H23 lung, in the assay on SK-MEL-28 melanoma, in the assay on HCT-116 colon, in the assay on A549 NSCLC and in the assay on NCI-H226 lung was over 100 µM throughout. In addition, the TGI with MDA-N, in the assay on TK-10 renal, in the assay on UACC-257 melanoma, in the assay on DU-145 prostate, in the assay on SN12C renal and in the assay on SF-295 CNS was over 100 µM each time.

Regarding `Cc1cc(CNC(=O)OCc2ccccc2)c(C)c2c1Oc1ccccc1O2`, the TGI in the assay with OVCAR-5 ovarian was over 100 µM; in the assay with NCI-H23 lung, over 100 µM; in the assay on SK-MEL-28 melanoma, over 100 µM; in the assay on HCT-116 colon it was over 100 µM; in the assay on A549 NSCLC, 97.7 µM; in the assay on NCI-H226 lung, over 93.6 µM. Besides, the TGI in the assay on SF-539 CNS was 47.9 µM; in the assay on SR leukemia, over 100 µM; in the assay with TK-10 renal, over 100 µM; in the assay with UACC-257 melanoma, over 100 µM; in the assay with DU-145 prostate, over 100 µM; in the assay on CCRF-CEM leukemia it was over 100 µM. Moreover, the TGI in the assay on SN12C renal is over 91.8 µM; in the assay with SF-295 CNS, over 100 µM; in the assay with SW-620 colon it was over 100 µM. In the assay with SF-539 CNS, the GI50 was 19.5 µM.

On to `COC(=O)c1cc(NC(=O)c2cc(NC(=O)c3cc([N+](=O)[O-])cn3C)cn2C)cn1C`, for which the TGI in the assay on OVCAR-5 ovarian, in the assay on NCI-H23 lung, in the assay on SK-MEL-28 melanoma, with HCT-116 colon, in the assay with A549 NSCLC and in the assay with NCI-H226 lung was over 100 µM in each case. Further, the TGI in the assay on SF-539 CNS was over 100 µM; in the assay with MDA-N, over 100 µM; with TK-10 renal it was 94.7 µM; with DU-145 prostate, over 100 µM; in the assay with CCRF-CEM leukemia, over 100 µM; with SN12C renal it was over 100 µM. Also, the TGI in the assay with SF-295 CNS and in the assay on SW-620 colon was over 100 µM throughout.

In the case of `O=C(/C=C/c1cccc(Br)c1)c1cccs1`, the TGI was 41.6 µM in the assay with NCI-H23 lung; 32.9 µM in the assay on SK-MEL-28 melanoma; 18 µM in the assay on HCT-116 colon; 36.2 µM with A549 NSCLC; 32.7 µM with NCI-H226 lung; 31.9 µM in the assay with SF-539 CNS. Besides, the TGI in the assay on SR leukemia is over 100 µM; with MDA-N it was 22.3 µM; in the assay on TK-10 renal, 31.5 µM; in the assay on UACC-257 melanoma, 33 µM; in the assay with CCRF-CEM leukemia it was 23.6 µM; in the assay on SN12C renal, 31.1 µM. Also, the TGI turned out to be 30.2 µM in the assay on SF-295 CNS and 27.5 µM in the assay on SW-620 colon.

For the compound `Cc1ccc(OCC2OC(n3cnc4c(N(C)C)nc(Br)nc43)CC2Oc2ccc(C)cc2)cc1` (stereo not drawn), the TGI with OVCAR-5 ovarian, with NCI-H23 lung, with SK-MEL-28 melanoma, in the assay with HCT-116 colon, with A549 NSCLC and with NCI-H226 lung was over 100 µM each time. Moreover, the TGI with SF-539 CNS, with MDA-N, in the assay with TK-10 renal, in the assay with UACC-257 melanoma, in the assay with DU-145 prostate and in the assay on CCRF-CEM leukemia was over 100 µM throughout. Besides, the TGI in the assay with SN12C renal, in the assay on SF-295 CNS and with SW-620 colon was over 100 µM each time.

Take `O=C(Nc1nc2c(=O)[nH]cnc2s1)c1ccccc1`: the TGI with OVCAR-5 ovarian, in the assay on NCI-H23 lung, in the assay on SK-MEL-28 melanoma, in the assay on HCT-116 colon, in the assay on A549 NSCLC and in the assay with NCI-H226 lung was over 100 µM throughout. Also, the TGI with SF-539 CNS is over 100 µM; in the assay on SR leukemia, 61.9 µM; with TK-10 renal, over 100 µM; in the assay on UACC-257 melanoma, over 100 µM; in the assay on DU-145 prostate it was over 100 µM; in the assay with CCRF-CEM leukemia, over 100 µM. The TGI in the assay on SN12C renal, with SF-295 CNS and with SW-620 colon was over 100 µM throughout.

For `COC(=O)C1=C(C)NC2(O)C=CC(=O)C3C(=O)N(c4ccccc4)C(=O)C132` (stereo not drawn), the TGI is over 100 µM in the assay on OVCAR-5 ovarian; over 100 µM in the assay on NCI-H23 lung; 78.7 µM in the assay with SK-MEL-28 melanoma; over 100 µM with HCT-116 colon; over 100 µM in the assay on A549 NSCLC; over 100 µM in the assay on NCI-H226 lung. Moreover, the TGI in the assay with SF-539 CNS, with SR leukemia, in the assay with TK-10 renal, with UACC-257 melanoma, in the assay with DU-145 prostate and in the assay with CCRF-CEM leukemia was over 100 µM throughout. The TGI in the assay with SN12C renal, in the assay on SF-295 CNS and with SW-620 colon was over 100 µM each time.

Regarding `c1ccc(C2=Nc3nc4ccccc4n3C(c3ccccc3)C2)cc1` (stereo not drawn), the TGI in the assay on OVCAR-5 ovarian, in the assay on NCI-H23 lung, in the assay with SK-MEL-28 melanoma, with HCT-116 colon, in the assay with A549 NSCLC and in the assay on NCI-H226 lung was over 100 µM in each case. Besides, the TGI with SF-539 CNS, with SR leukemia, in the assay with MDA-N, in the assay on TK-10 renal, in the assay on UACC-257 melanoma and in the assay with CCRF-CEM leukemia was over 100 µM each time. Further, the TGI in the assay with SF-295 CNS and with SW-620 colon was over 100 µM in each case.

Turning to `Cn1c(C(C#N)c2nc(Cl)ncc2Br)nc2ccccc21` (stereo not drawn), the TGI with OVCAR-5 ovarian, with NCI-H23 lung, with SK-MEL-28 melanoma, in the assay with HCT-116 colon, with A549 NSCLC and in the assay with NCI-H226 lung was over 100 µM in each case. In addition, the TGI in the assay on SF-539 CNS, with MDA-N, in the assay on TK-10 renal, in the assay with UACC-257 melanoma, in the assay on DU-145 prostate and in the assay with SN12C renal was over 100 µM each time. Moreover, the TGI in the assay with SF-295 CNS and in the assay with SW-620 colon was over 100 µM throughout.
